Reference: US20080025940A1, “Administration of 3-sulfanylpropanamide compounds for stimulating hair and eyelash growth and/or for stopping the loss and/or limiting the depigmentation thereof” (L'OREAL, priority 2005, published 2008)

Each compound was assayed against T1, 15-PGDH (Homo sapiens, UniProt P15428) (assay: Test on 15-PGDH (spectrophotometric, NAD/PGE2, 340 nm)). Conditions: at 100 μM.
T1 construct: made in house
T1 sequence (P15428 1-266): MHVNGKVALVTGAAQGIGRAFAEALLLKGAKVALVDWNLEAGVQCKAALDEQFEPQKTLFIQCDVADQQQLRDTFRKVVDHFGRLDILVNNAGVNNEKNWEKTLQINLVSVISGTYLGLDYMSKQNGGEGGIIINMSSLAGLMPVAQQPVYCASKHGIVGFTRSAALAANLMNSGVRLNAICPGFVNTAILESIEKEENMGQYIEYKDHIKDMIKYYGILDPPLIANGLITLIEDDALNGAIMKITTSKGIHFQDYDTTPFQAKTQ
Format: biochemical
Method: The enzyme 15-PGDH is obtained as described in FR 02/05067 filed in the name of L'Oreal, as a suspension in a medium adjusted to a concentration of 0.3 mg/mL and then blocked at −80° C. For the purposes of the test, this suspension is thawed and stored in ice.
In parallel, a 100 mM, pH 7.4 Tris buffer containing 0.1 mM of dithiothreitol (D5545, Sigma-Aldrich, L'isle D'Abeau Chesne, BP 701, 38297, Saint Quentin Fallavier), 1.5 mM of β-NAD (N6522, Sigma-Aldrich, L'isle D'Abeau Chesne, BP 701, 38297, Saint Quentin Fallavier), and 50 μM of prostaglandin E2 (P4172, Sigma-Aldrich, L'isle D'Abeau Chesne, BP 701, 38297, Saint Quentin Fallavier) is prepared.
0.965 ml of this buffer (brought to 37° C. beforehand) is introduced into the cuvette of a spectrophotometer (Perkin-Elmer, Lambda 2) thermostatically maintained at 37° C., the measuring wavelength of which is set at 340 nm. 0.035 mL of enzymatic suspension at 37° C. is introduced into the cuvette concomitantly with the recording (corresponding to an increase in the optical density at 340 nm). The maximum reaction rate is recorded.

Compound `CSCCC(=O)Nc1ccccc1C(F)(F)F` [Example 5, 3-(methylsulfanyl)-N-[2-(trifluoromethyl)phenyl]propanamide] has an inhibition at 100 µM of 21%.

Same assay, conditions: pH 7.4 Tris buffer, 37° C., 50 μM prostaglandin E2, 1.5 mM β-NAD; read-out: IC50 (concentration reducing the enzymatic activity of 15-PGDH by 50%, IC50dh)

Compared with “N-benzyl-3-(methylsulfanyl)propanamide [Example 6]”, `CSCCC(=O)NCc1ccc(C)o1` [Example 1, N-[(5-methyl-2-furyl)methyl]-3-(methylsulfanyl)propanamide] is 2-fold lower in IC50: 1.6 µM for the first, 0.8 µM for the second.

Compared with `CSCCC(=O)NC1CCC1` [Example 8, N-cyclobutyl-3-(methylsulfanyl)propanamide], `CCCCCCNC(=O)CCSC` [Example 4, N-hexyl-3-(methylsulfanyl)propanamide] is 3.9-fold lower in IC50: 47 µM for the first, 12 µM for the second. The second is the more potent here.

Compared with `CSCCC(=O)NCc1ccco1` [Example 2, N-(2-furylmethyl)-3-(methylsulfanyl)propanamide], `COc1ccc(CNC(=O)CCSC)cc1` [Example 3, N-(4-methoxybenzyl)-3-(methylsulfanyl)propanamide] is 1.6-fold lower in IC50: 9.8 µM for the first, 6 µM for the second.

`CSCCC(=O)NC(C)c1ccccc1` (centres unmarked) [Example 7, 3-(methylsulfanyl)-N-(1-phenylethyl)propanamide] gave an IC50 of 14.7 µM.
